According to patent publication US11773086B2, “Fungal modulators” (TRUSTEES OF BOSTON UNIVERSITY, priority 2020, dated 2023):

What was measured:
C. auris = assay: Intracellular fluconazole and azoffluxin detection by LC-MS; assay type: cell-based, Candida auris; conditions: combination treatment vs high fluconazole alone, 1 hour
From the text: FIGS. 3A-3B, and 4A-4B illustrate azoffluxin increases fluconazole (FLC) bioavailability by inhibiting Cdr1-mediated efflux in C. auris, as described above. FIG. 3A depicts the relative abundance of specific sterols determined in C. auris after an 18-hour treatment with the respective compounds (⋅ indicates combo treatment concentrations) using LC-MS. Values are plotted relative to the internal standard of cholesterol and error bars indicate standard deviation between technical triplicates. Significance was determined by an unpaired student t-test of each condition to untreated, (*) indicates a p-value<0.05 and (**) indicates a p-value<0.01. FIG. 3B depicts the intracellular concentrations of FLC and azoffluxin measured after treatment for 1 hour (conditions as in FIG. 3A) Error bars indicate standard deviation between technical triplicates. Significance was determined by an unpaired student t-test, (**) indicates a p-value<0.01. FIG. 4A depicts the quantified relative expression of a panel of putative efflux pumps in C. auris Ci6684. Expression of CDR1 (B9J08_000164), MDR1 (B9J08_003981), CDR4-1 (B9J08_000479), CDR4-2 (B9J08_002451), SNQ2-1 (B9J08_001125), and SNQ2-2 (B9J08_004452) was measured by RT-qPCR. […] FIG. 4B depicts expression of CDR1 (B9J08_000164) and CDR4-1 (B9J08_000479) measured by quantitative real-time PCR (RT-qPCR). […]

MDR1 (ABCB1) = target: T1, MDR1 (ABCB1) (Homo sapiens, UniProt P08183); assay: Rhodamine 6G accumulation in MDR1-overexpressing HEK293 cells (flow cytometry); assay type: cell-based, mammalian
T1 construct: expressed in transfected cells; host or cells: HEK293
T1 sequence (P08183 whole entry): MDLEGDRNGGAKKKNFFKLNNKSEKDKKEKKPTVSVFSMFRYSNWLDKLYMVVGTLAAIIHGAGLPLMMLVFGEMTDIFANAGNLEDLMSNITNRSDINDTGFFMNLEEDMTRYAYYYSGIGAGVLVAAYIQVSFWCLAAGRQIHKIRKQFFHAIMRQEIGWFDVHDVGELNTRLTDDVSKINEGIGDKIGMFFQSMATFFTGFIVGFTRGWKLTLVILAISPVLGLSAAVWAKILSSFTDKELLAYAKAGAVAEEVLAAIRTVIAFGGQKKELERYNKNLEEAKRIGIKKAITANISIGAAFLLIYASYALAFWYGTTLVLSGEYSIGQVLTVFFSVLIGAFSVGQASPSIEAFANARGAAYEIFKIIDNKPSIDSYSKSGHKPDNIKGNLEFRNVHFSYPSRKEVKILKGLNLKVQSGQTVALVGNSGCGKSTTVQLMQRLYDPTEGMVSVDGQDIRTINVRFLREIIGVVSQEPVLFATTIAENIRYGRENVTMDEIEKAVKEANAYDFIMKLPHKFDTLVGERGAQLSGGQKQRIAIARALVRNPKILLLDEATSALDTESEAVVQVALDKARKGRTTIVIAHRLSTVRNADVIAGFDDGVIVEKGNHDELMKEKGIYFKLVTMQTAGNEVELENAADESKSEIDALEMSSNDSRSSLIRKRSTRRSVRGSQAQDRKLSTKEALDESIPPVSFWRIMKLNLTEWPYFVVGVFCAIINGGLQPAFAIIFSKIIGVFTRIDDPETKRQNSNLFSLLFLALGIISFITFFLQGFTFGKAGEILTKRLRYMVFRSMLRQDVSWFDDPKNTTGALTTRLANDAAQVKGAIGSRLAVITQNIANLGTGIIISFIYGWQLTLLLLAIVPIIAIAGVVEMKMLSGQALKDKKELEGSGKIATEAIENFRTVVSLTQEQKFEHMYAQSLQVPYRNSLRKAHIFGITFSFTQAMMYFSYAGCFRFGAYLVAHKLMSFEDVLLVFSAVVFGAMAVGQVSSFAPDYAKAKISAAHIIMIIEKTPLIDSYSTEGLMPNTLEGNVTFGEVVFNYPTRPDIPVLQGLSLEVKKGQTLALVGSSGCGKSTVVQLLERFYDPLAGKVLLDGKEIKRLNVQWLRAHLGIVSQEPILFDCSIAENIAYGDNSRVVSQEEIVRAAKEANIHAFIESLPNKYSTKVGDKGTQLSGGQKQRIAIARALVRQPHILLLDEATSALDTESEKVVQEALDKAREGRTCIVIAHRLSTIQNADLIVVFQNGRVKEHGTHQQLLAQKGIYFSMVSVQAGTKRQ
Protocol: P-gp overexpressing HEK293 cell lines were used to determine if azoffluxin treatment leads to a greater accumulation of fluorescent substrates (MFI) as determined by flow cytometry.
MDR1 (ABCB1) and MRP1 (ABCC1) was assessed using the fluorescent dyes rhodamine 6G (0.5 μg/mL) and Calcein AM (2.5 μg/mL), for each pump respectively, and the known inhibitor controls tariquidar (60 nM) and MK571 (30 μM) for each pump respectively. Listed data is shown by FIG. 12E (R6G) and FIG. 12F (Cal).

[1] = Single dose plasma pharmacokinetic profile; assay type: in vivo, mice; conditions: mouse

## C=C(C)C[C@@H](O)COc1cc2c(cc1C1(c3cc4c(cc3OC[C@H](O)CC(=C)C)OCO4)C(=O)Nc3cc(F)ccc31)OCO2 [CMLD012336]
C. auris
  increase in intracellular fluconazole: ~2.5 fold
MDR1 (ABCB1)
  dye accumulation in control cDNA cells: no effect
[1]
  half-life: 2.6 h
